Laboratory results published in PubChem BioAssay (NCI).
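Cultured in 96-well plates, cells were exposed to test compound for 48 hours across five concentrations. GI50 is the concentration that inhibits growth by half. The concentration for full growth arrest is given as TGI.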

Experiments:
Assay in all cases: inhibition of tumour cell growth, NCI panel, 48 h
A549 NSCLC = system: A549 NSCLC
IGROV1 ovarian = system: IGROV1 ovarian
BT-549 breast = system: BT-549 breast
ACHN renal = system: ACHN renal
HCT-116 colon = system: HCT-116 colon
M14 melanoma = system: M14 melanoma
TK-10 renal = system: TK-10 renal
NCI-H522 lung = system: NCI-H522 lung
UACC-62 melanoma = system: UACC-62 melanoma
UO-31 renal = system: UO-31 renal
HCC-2998 colon = system: HCC-2998 colon
DU-145 prostate = system: DU-145 prostate
SF-539 CNS = system: SF-539 CNS
UACC-257 melanoma = system: UACC-257 melanoma
SK-MEL-28 melanoma = system: SK-MEL-28 melanoma
NCI-H226 lung = system: NCI-H226 lung
786-0 renal = system: 786-0 renal
MOLT-4 leukemia = system: MOLT-4 leukemia
OVCAR-8 ovarian = system: OVCAR-8 ovarian
HT29 colon = system: HT29 colon
SK-MEL-2 melanoma = system: SK-MEL-2 melanoma
MDA-MB-435 = system: MDA-MB-435
NCI-H460 lung = system: NCI-H460 lung
OVCAR-4 ovarian = system: OVCAR-4 ovarian
MCF7 breast = system: MCF7 breast
EKVX NSCLC = system: EKVX NSCLC
HL-60(TB) leukemia = system: HL-60(TB) leukemia
HCT-15 colon = system: HCT-15 colon
SNB-19 CNS = system: SNB-19 CNS
NCI/ADR-RES ovarian = system: NCI/ADR-RES ovarian
PC-3 prostate = system: PC-3 prostate
A498 renal = system: A498 renal
HS 578T breast = system: HS 578T breast
K-562 leukemia = system: K-562 leukemia
CAKI-1 renal = system: CAKI-1 renal
MDA-MB-231 breast = system: MDA-MB-231 breast
SNB-75 CNS = system: SNB-75 CNS
LOX IMVI melanoma = system: LOX IMVI melanoma
RPMI-8226 leukemia = system: RPMI-8226 leukemia
SR leukemia = system: SR leukemia
SK-MEL-5 melanoma = system: SK-MEL-5 melanoma
OVCAR-5 ovarian = system: OVCAR-5 ovarian
SF-295 CNS = system: SF-295 CNS
KM12 colon = system: KM12 colon
U251 CNS = system: U251 CNS
CCRF-CEM leukemia = system: CCRF-CEM leukemia
SF-268 CNS = system: SF-268 CNS
SW-620 colon = system: SW-620 colon
SN12C renal = system: SN12C renal
MALME-3M melanoma = system: MALME-3M melanoma
HOP-92 NSCLC = system: HOP-92 NSCLC
RXF 393 renal = system: RXF 393 renal
NCI-H23 lung = system: NCI-H23 lung
T-47D breast = system: T-47D breast
SK-OV-3 ovarian = system: SK-OV-3 ovarian
HOP-62 NSCLC = system: HOP-62 NSCLC

For `COc1ccc2c(c1)C=CC1(O2)Oc2ccc(OC)cc2C=C1C` (stereo not given), the GI50 (A549 NSCLC) was 1000 nM, the TGI (A549 NSCLC) was > 100000 nM and the GI50 (IGROV1 ovarian) was 704 nM. For the same molecule, the TGI (IGROV1 ovarian) was > 100000 nM, the GI50 (BT-549 breast) was 332 nM and the TGI (BT-549 breast) was 1690 nM. The GI50 (ACHN renal) was 673 nM, the TGI (ACHN renal) was > 54500 nM and the GI50 (HCT-116 colon) was 509 nM. The TGI (HCT-116 colon) was > 24200 nM, the GI50 (M14 melanoma) was 402 nM and the GI50 (TK-10 renal) was 7810 nM. The TGI (TK-10 renal) was > 100000 nM, the GI50 (NCI-H522 lung) was 303 nM and the TGI (NCI-H522 lung) was 24100 nM. The GI50 (UACC-62 melanoma) was 390 nM, the TGI (UACC-62 melanoma) was > 32900 nM and the GI50 (UO-31 renal) was 1310 nM. For the same molecule, the TGI (UO-31 renal) was > 46900 nM, the GI50 (HCC-2998 colon) was 1350 nM and the TGI (HCC-2998 colon) was 7360 nM. For the same molecule, the GI50 (DU-145 prostate) was 1130 nM, the TGI (DU-145 prostate) was > 100000 nM and the GI50 (SF-539 CNS) was 396 nM. For the same molecule, the TGI (SF-539 CNS) was 3020 nM, the GI50 (UACC-257 melanoma) was 820 nM and the TGI (UACC-257 melanoma) was > 48900 nM. The GI50 (SK-MEL-28 melanoma) was 4800 nM, the TGI (SK-MEL-28 melanoma) was > 81900 nM and the GI50 (NCI-H226 lung) was 4410 nM. The TGI (NCI-H226 lung) was > 65600 nM, the GI50 (786-0 renal) was 742 nM and the TGI (786-0 renal) was > 36200 nM. The GI50 (MOLT-4 leukemia) was 447 nM, the TGI (MOLT-4 leukemia) was > 71600 nM and the GI50 (OVCAR-8 ovarian) was 944 nM. For the same molecule, the TGI (OVCAR-8 ovarian) was 4560 nM, the GI50 (HT29 colon) was 345 nM and the TGI (HT29 colon) was 1620 nM. The GI50 (SK-MEL-2 melanoma) was 392 nM, the TGI (SK-MEL-2 melanoma) was 54000 nM and the GI50 (MDA-MB-435) was 222 nM. It also gave a TGI (MDA-MB-435) of 545 nM, a GI50 (NCI-H460 lung) of 422 nM and a TGI (NCI-H460 lung) of 2050 nM. For the same molecule, the GI50 (OVCAR-4 ovarian) was 28800 nM, the TGI (OVCAR-4 ovarian) was > 100000 nM and the GI50 (MCF7 breast) was 652 nM. The TGI (MCF7 breast) was > 100000 nM, the GI50 (EKVX NSCLC) was 1820 nM and the TGI (EKVX NSCLC) was > 100000 nM. For the same molecule, the GI50 (HL-60(TB) leukemia) was 288 nM, the GI50 (HCT-15 colon) was 453 nM and the TGI (HCT-15 colon) was 31400 nM. For the same molecule, the GI50 (SNB-19 CNS) was 598 nM, the TGI (SNB-19 CNS) was > 100000 nM and the GI50 (NCI/ADR-RES ovarian) was 397 nM. The TGI (NCI/ADR-RES ovarian) was > 100000 nM, the GI50 (PC-3 prostate) was 461 nM and the TGI (PC-3 prostate) was > 41900 nM. The GI50 (A498 renal) was 251 nM, the TGI (A498 renal) was 1060 nM and the GI50 (HS 578T breast) was 348 nM. For the same molecule, the TGI (HS 578T breast) was > 100000 nM, the GI50 (K-562 leukemia) was 358 nM and the TGI (K-562 leukemia) was > 100000 nM. The GI50 (CAKI-1 renal) was 632 nM, the TGI (CAKI-1 renal) was > 100000 nM and the GI50 (MDA-MB-231 breast) was 1160 nM. The TGI (MDA-MB-231 breast) was > 100000 nM, the GI50 (SNB-75 CNS) was 273 nM and the TGI (SNB-75 CNS) was > 100000 nM. It also gave a GI50 (LOX IMVI melanoma) of 647 nM, a TGI (LOX IMVI melanoma) of 8520 nM and a GI50 (RPMI-8226 leukemia) of 475 nM. For the same molecule, the TGI (RPMI-8226 leukemia) was > 25400 nM, the GI50 (SR leukemia) was 335 nM and the TGI (SR leukemia) was 22700 nM. For the same molecule, the GI50 (SK-MEL-5 melanoma) was 695 nM, the TGI (SK-MEL-5 melanoma) was 13500 nM and the GI50 (OVCAR-5 ovarian) was 1760 nM. The TGI (OVCAR-5 ovarian) was > 100000 nM, the GI50 (SF-295 CNS) was 384 nM and the TGI (SF-295 CNS) was > 100000 nM. The GI50 (KM12 colon) was 506 nM, the TGI (KM12 colon) was > 100000 nM and the GI50 (U251 CNS) was 456 nM. The TGI (U251 CNS) was 7860 nM, the GI50 (CCRF-CEM leukemia) was 366 nM and the TGI (CCRF-CEM leukemia) was 4080 nM. For the same molecule, the GI50 (SF-268 CNS) was 1810 nM, the TGI (SF-268 CNS) was > 100000 nM and the GI50 (SW-620 colon) was 380 nM. For the same molecule, the TGI (SW-620 colon) was 16700 nM, the GI50 (SN12C renal) was 800 nM and the TGI (SN12C renal) was > 55900 nM. For the same molecule, the GI50 (MALME-3M melanoma) was 33000 nM, the TGI (MALME-3M melanoma) was > 100000 nM and the GI50 (HOP-92 NSCLC) was 189 nM. It also gave a TGI (HOP-92 NSCLC) of 930 nM, a GI50 (RXF 393 renal) of 432 nM and a TGI (RXF 393 renal) of 17700 nM. The GI50 (NCI-H23 lung) was 1370 nM, the TGI (NCI-H23 lung) was > 100000 nM and the GI50 (T-47D breast) was 2030 nM. For the same molecule, the TGI (T-47D breast) was > 65200 nM, the GI50 (SK-OV-3 ovarian) was 538 nM and the TGI (SK-OV-3 ovarian) was > 100000 nM. The GI50 (HOP-62 NSCLC) was 615 nM and the TGI (HOP-62 NSCLC) was > 59200 nM.
